Measurements as given in patent US20230104936A1, “TRPML MODULATORS” (Casma Therapeutics, Inc., priority 2019, published 2023).

Test system: TFEB
Assay: TFEB nuclear translocation assay, HeLa wt cells
Format: cell-based
Details: Homo sapiens, HeLa, 2 h, 2 hrs compound treatment, Table 1 does not say HeLa wt or TRPML1 KO
Outline: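 HeLa wt or TRPML1 KO cells treated 2 hrs with compounds at 37° C, fixed in 4% PFA, immunostained with anti-TFEB plus Alexa 488 secondary and Hoechst. Imaged at ×20, four fields/well; read-out is nuclear/perinuclear-ring TFEB intensity ratio, reported as AC50.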

In the case of O=S(=O)(Nc1ccccc1N1CCC(c2ccc(Cl)cc2F)CC1)c1ccccc1CO [Compound A-106, N-{2-[4-(4-chloro-2-fluorophenyl)piperidin-1-yl]phenyl}-2-(hydroxymethyl)benzene-1-sulfonamide], the AC50 is reported as at least 10 µM.
Work on CS(=O)(=O)c1ccc(S(=O)(=O)Nc2ccccc2N2CCC3(CC2)CN(CC2CCOC2)c2cc(F)ccc23)cc1 (stereo not shown) [Compound A-423, N-(2-{6-fluoro-1-[(oxolan-3-yl)methyl]-1,2-dihydrospiro[indole-3,4′-piperidin]-1′-yl}phenyl)-4-methanesulfonylbenzene-1-sulfonamide] yielded an AC50 of at most 2 µM.
For CS(=O)(=O)c1ccc(S(=O)(=O)Nc2ccccc2N2CCC3(CC2)CN(CC2CC2(F)F)c2cc(F)ccc23)cc1 (stereo not shown) [Compound A-468, N-(2-{1-[(2,2-difluorocyclopropyl)methyl]-6-fluoro-1,2-dihydrospiro[indole-3,4′-piperidin]-1′-yl}phenyl)-4-methanesulfonylbenzene-1-sulfonamide], the AC50 was at most 2 µM.
COCC1(C)CCN(c2ccccc2NS(=O)(=O)Cc2cccc(S(=O)(=O)N(C)C)c2)CC1 [Compound A-680, 3-[({2-[4-(methoxymethyl)-4-methylpiperidin-1-yl]phenyl}sulfamoyl)methyl]-N,N-dimethylbenzene-1-sulfonamide] was tested, and the AC50 was 8.01 to 9.99 µM.
Work on Cc1ccc(S(=O)(=O)Nc2ccccc2N2[C@@H]3CC[C@H]2C[C@@H](c2ccccc2F)C3)cc1 [Compound A-120, N-{2-[(1R,3R,5S)-3-(2-fluorophenyl)-8-azabicyclo[3.2.1]octan-8-yl]phenyl}-4-methylbenzene-1-sulfonamide] yielded an AC50 of at most 2 µM.
CC(c1cccc(F)c1N1CCC(CN2CCC(F)(F)CC2)CC1)S(=O)(=O)c1ccc(S(=O)(=O)N(C)C)cc1 (stereo not shown) [Compound A-801, 4-((1-(2-(4-((4,4-difluoropiperidin-1-yl)methyl)piperidin-1-yl)-3-fluorophenyl)ethyl)sulfonyl)-N,N-dimethylbenzenesulfonamide] showed an AC50 of at most 2 µM.
Cn1nccc1S(=O)(=O)Nc1ccccc1N1CCN(c2ccc(Cl)cc2F)CC1 [Compound A-15, N-{2-[4-(4-chloro-2-fluorophenyl)piperazin-1-yl]phenyl}-1-methyl-1H-pyrazole-5-sulfonamide] gave an AC50 of at least 10 µM.
For C#Cc1cccc(NS(=O)(=O)c2ccc(S(=O)(=O)N(C)C)cc2)c1N1CCCCC1 [Compound A-901, N4-[3-ethynyl-2-(piperidin-1-yl)phenyl]-N1,N1-dimethylbenzene-1,4-disulfonamide], the AC50 was at most 2 µM.
COCC1(C)CCN(c2ccccc2NS(=O)(=O)c2ccc(OC(F)(F)F)cc2)CC1 [Compound A-622, N-{2-[4-(methoxymethyl)-4-methylpiperidin-1-yl]phenyl}-4-(trifluoromethoxy)benzene-1-sulfonamide] gave an AC50 of 2.01 to 8 µM.
C[C@@H]1CN(CC2CCN(c3c(F)cccc3NS(=O)(=O)c3ccc(S(C)(=O)=O)cc3)CC2)C[C@H](C)O1 [Compound A-776, N-[2-(4-{[(2R,6S)-2,6-dimethylmorpholin-4-yl]methyl}piperidin-1-yl)-3-fluorophenyl]-4-methanesulfonylbenzene-1-sulfonamide] gave an AC50 of at most 2 µM.
Work on Cc1nn(C)c(NS(=O)(=O)c2ccc(S(=O)(=O)N(C)C)cc2)c1C1CCN(c2ccc(Cl)cc2F)CC1 [Compound A-75, N1-(4-(1-(4-chloro-2-fluorophenyl)piperidin-4-yl)-1,3-dimethyl-1H-pyrazol-5-yl)-N4,N4-dimethylbenzene-1,4-disulfonamide] yielded an AC50 of at least 10 µM.
COCC1(C)CCN(c2ccccc2NS(=O)(=O)c2ccc3c(c2)C(C)(C)OC3)CC1 [Compound A-683, N-{2-[4-(methoxymethyl)-4-methylpiperidin-1-yl]phenyl}-3,3-dimethyl-1,3-dihydro-2-benzofuran-5-sulfonamide] showed an AC50 of 2.01 to 8 µM.
CC1(C)CC2(CCN(c3ccccc3NS(=O)(=O)C3=Cc4ccccc4CC3)CC2)CO1 [Compound A-676, N-(2-{3,3-dimethyl-2-oxa-8-azaspiro[4.5]decan-8-yl}phenyl)-3,4-dihydronaphthalene-2-sulfonamide] was tested, and the AC50 was 2.01 to 8 µM.
